Literature values, collected in patent US20040142860A1, “Central nervous system-derived immune privilege factor and uses thereof” (Yeda Research and Development Co. Ltd., priority 1996, published 2004).

Test system: ganglion cell degradation in the retina
Conditions: single or repeated injections into the vitreous body

Threonine-Lysine-Proline [TKP]
effect on axotomy-induced ganglion cell degradation in the retina: retardation of axotomy-induced ganglion cell degradation in the retina
